From the kinase profiling compilation of Christmann-Franck et al. (2016)

Columns and labels:
Test in all cases: Caliper, Mobility shift assay off-chip
PAK1 (human) = PAK1 (human) (UniProt Q13153)
NEK6 (human) = NEK6 (human) (UniProt Q9HC98)
CDK7 (human) = CDK7 (human) (UniProt P50613)
CDK4 (human) = CDK4 (human) (UniProt P11802)
PBK (human) = PBK (human) (UniProt Q96KB5)
TSSK3 (human) = TSSK3 (human) (UniProt Q96PN8)
FRK (human) = FRK (human) (UniProt P42685)
EPHA2 (human) = EPHA2 (human) (UniProt P29317)
LTK (human) = LTK (human) (UniProt P29376)
NEK7 (human) = NEK7 (human) (UniProt Q8TDX7)
CHUK (human) = CHUK (human) (UniProt O15111)
RPS6KA2 KD1 KD2 (human) = RPS6KA2 KD1 KD2 (human) (UniProt Q15349)
FGR (human) = FGR (human) (UniProt P09769)
PGK1 (human) = PGK1 (human) (UniProt P00558)
HIPK4 (human) = HIPK4 (human) (UniProt Q8NE63)
AURKA (human) = AURKA (human) (UniProt O14965)
AKT3 (human) = AKT3 (human) (UniProt Q9Y243)
INSRR (human) = INSRR (human) (UniProt P14616)
AKT2 (human) = AKT2 (human) (UniProt P31751)
KDR (human) = KDR (human) (UniProt P35968)
GSK3A (human) = GSK3A (human) (UniProt P49840)
AKT1 (human) = AKT1 (human) (UniProt P31749)
EPHB2 (human) = EPHB2 (human) (UniProt P29323)
PAK4 (human) = PAK4 (human) (UniProt O96013)
NIM1 (human) = NIM1 (human) (UniProt Q8IY84)
ROCK1 (human) = ROCK1 (human) (UniProt Q13464)
CAMK1D (human) = CAMK1D (human) (UniProt Q8IU85)
MKNK1 (human) = MKNK1 (human) (UniProt Q9BUB5)
TNIK (human) = TNIK (human) (UniProt Q9UKE5)
STK4 (human) = STK4 (human) (UniProt Q13043)
EPHA7 (human) = EPHA7 (human) (UniProt Q15375)
CAMK2D (human) = CAMK2D (human) (UniProt Q13557)
PRKCH (human) = PRKCH (human) (UniProt P24723)
GSG2 (human) = GSG2 (human) (UniProt Q8TF76)
JAK1 JH1 JH2 (human) = JAK1 JH1 JH2 (human) (UniProt P23458)
JAK1 JH1 JH2 (human), sequence (P23458 whole entry, looked up): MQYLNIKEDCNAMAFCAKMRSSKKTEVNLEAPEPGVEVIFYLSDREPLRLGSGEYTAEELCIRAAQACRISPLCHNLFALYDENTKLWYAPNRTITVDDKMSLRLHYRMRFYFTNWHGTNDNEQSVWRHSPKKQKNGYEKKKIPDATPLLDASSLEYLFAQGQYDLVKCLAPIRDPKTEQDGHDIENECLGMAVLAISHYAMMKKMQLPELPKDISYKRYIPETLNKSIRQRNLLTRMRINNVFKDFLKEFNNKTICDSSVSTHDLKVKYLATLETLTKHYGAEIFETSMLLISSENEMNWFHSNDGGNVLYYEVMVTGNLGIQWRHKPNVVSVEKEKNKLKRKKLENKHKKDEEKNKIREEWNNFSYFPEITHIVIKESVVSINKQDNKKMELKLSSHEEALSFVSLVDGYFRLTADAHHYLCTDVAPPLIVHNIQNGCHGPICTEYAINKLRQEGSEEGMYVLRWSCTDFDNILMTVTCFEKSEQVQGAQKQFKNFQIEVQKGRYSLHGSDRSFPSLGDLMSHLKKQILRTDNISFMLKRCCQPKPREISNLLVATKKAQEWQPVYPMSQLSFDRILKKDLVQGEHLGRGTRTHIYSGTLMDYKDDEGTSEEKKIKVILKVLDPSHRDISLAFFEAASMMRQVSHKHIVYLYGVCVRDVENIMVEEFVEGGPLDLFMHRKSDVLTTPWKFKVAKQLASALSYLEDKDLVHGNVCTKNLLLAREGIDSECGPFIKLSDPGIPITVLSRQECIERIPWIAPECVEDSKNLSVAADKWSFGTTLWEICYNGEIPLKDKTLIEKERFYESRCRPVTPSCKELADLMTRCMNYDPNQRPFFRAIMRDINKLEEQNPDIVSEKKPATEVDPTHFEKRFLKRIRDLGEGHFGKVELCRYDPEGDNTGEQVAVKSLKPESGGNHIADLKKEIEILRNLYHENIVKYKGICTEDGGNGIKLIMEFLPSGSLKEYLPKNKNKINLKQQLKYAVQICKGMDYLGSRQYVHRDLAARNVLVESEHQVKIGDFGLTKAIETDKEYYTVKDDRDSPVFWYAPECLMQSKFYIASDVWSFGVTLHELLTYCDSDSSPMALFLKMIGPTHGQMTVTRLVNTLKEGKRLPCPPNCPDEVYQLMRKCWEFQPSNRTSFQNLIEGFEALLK

KDR (human), sequence (P35968 whole entry, looked up): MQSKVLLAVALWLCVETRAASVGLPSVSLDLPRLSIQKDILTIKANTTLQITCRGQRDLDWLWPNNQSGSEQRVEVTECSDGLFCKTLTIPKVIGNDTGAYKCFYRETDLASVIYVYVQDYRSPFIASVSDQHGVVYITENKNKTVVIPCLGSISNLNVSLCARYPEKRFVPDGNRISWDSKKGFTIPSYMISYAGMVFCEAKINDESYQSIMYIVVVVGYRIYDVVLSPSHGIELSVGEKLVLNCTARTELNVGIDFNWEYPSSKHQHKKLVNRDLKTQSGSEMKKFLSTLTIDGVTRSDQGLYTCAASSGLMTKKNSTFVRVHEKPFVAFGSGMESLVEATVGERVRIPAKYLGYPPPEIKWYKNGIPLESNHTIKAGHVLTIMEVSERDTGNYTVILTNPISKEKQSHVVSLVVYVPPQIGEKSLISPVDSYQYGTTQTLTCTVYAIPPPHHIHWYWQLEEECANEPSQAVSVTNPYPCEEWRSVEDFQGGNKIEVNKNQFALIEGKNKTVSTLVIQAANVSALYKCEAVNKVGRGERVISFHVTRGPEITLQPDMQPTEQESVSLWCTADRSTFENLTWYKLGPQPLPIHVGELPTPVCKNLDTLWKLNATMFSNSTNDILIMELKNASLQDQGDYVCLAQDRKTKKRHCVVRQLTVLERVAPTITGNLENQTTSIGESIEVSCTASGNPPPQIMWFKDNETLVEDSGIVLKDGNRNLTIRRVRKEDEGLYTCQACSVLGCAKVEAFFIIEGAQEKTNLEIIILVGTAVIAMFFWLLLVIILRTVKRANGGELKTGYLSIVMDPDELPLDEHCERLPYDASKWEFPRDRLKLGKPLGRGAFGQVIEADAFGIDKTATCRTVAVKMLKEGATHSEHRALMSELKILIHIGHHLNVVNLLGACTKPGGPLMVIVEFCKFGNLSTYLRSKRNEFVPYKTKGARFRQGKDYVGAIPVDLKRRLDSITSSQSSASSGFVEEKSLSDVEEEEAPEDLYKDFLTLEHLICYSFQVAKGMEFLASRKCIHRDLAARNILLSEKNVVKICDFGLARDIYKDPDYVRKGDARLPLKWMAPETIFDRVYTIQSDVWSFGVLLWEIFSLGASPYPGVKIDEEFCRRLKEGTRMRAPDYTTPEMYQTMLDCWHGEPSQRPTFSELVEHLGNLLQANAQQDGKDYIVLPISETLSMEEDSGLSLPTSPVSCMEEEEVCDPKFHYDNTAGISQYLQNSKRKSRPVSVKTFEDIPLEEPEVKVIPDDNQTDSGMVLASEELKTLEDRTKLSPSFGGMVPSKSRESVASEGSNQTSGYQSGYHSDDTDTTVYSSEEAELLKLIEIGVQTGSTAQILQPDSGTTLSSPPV
CDK7 (human), sequence (P50613 whole entry, looked up): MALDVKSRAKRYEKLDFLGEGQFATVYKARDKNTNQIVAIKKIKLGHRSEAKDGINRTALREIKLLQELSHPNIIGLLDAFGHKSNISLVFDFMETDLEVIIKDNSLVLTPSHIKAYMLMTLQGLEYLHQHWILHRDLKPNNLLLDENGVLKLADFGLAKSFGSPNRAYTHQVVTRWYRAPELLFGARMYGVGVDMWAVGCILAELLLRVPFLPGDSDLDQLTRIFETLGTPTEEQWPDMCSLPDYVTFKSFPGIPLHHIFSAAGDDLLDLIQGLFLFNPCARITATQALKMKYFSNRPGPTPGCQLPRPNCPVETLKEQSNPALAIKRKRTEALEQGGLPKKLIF
LTK (human), sequence (P29376 whole entry, looked up): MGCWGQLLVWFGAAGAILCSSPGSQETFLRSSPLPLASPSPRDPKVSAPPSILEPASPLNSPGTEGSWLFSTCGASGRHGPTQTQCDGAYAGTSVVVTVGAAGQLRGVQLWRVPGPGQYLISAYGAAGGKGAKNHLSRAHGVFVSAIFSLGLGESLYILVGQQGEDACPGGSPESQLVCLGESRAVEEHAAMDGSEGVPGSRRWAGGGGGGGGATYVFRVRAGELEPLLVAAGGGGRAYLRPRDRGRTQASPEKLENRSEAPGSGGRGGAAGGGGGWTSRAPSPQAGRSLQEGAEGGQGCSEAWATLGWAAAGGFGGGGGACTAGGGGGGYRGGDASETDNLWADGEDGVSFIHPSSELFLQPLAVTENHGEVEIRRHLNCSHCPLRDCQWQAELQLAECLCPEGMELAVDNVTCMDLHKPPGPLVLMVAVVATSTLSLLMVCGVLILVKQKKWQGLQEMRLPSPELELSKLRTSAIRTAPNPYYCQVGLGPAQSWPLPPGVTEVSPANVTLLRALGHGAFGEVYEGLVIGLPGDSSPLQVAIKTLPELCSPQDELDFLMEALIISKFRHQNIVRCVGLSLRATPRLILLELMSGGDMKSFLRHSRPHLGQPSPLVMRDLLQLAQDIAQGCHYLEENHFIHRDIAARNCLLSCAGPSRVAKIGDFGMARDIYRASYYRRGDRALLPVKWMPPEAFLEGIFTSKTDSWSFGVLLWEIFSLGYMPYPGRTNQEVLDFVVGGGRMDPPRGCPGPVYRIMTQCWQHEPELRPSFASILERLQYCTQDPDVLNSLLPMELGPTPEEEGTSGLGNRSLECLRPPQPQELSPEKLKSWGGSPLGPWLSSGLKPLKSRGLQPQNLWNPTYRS
PAK4 (human), sequence (O96013 whole entry, looked up): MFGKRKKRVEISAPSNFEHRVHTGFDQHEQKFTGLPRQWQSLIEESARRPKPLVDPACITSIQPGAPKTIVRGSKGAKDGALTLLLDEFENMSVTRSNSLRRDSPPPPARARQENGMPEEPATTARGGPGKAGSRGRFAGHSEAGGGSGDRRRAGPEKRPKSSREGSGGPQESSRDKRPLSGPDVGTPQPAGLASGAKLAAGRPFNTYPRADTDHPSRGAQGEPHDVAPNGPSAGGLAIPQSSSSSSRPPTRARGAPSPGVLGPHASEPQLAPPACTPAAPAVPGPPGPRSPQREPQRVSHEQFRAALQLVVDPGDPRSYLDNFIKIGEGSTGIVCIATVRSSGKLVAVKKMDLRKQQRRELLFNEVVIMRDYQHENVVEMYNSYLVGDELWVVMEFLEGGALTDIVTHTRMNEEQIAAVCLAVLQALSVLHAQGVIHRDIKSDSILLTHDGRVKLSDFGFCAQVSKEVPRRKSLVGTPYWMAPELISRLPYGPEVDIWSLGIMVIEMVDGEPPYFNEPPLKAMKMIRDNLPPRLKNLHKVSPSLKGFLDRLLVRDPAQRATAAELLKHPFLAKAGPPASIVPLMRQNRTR
PGK1 (human), sequence (P00558 whole entry, looked up): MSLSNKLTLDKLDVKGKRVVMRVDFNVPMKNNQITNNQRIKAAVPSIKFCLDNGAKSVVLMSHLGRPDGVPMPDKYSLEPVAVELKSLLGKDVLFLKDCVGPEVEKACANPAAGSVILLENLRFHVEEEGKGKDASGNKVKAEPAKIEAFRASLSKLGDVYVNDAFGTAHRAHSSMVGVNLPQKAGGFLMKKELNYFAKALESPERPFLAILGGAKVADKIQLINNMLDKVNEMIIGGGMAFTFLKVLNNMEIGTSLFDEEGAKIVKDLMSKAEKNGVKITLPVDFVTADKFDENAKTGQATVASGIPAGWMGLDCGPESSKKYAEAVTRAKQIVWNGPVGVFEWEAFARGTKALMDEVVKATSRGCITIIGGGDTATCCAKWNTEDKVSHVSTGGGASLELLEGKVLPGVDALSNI
TSSK3 (human), sequence (Q96PN8 whole entry, looked up): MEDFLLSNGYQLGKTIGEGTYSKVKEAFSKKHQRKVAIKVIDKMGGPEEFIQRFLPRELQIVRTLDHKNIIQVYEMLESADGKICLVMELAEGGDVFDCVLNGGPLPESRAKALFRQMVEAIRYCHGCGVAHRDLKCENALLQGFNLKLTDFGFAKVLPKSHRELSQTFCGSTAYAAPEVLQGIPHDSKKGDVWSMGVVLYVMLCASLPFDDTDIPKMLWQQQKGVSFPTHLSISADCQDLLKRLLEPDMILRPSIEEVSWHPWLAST

COc1cc2c(Oc3ccc4[nH]c(C)cc4c3F)ncnc2cc1OCCCN1CCCC1
inhibition (PAK1 (human); compound 0.02 µM): -2.7% | inhibition (PAK1 (human); compound 0.2 µM): -3% | inhibition (NEK6 (human); compound 0.02 µM): -4.2% | inhibition (NEK6 (human); compound 0.2 µM): -3.5% | inhibition (CDK7 (human); compound 0.02 µM): -5.4% | inhibition (CDK7 (human); compound 0.2 µM): -4.5% | inhibition (CDK4 (human); compound 0.02 µM): 2.7% | inhibition (CDK4 (human); compound 0.2 µM): 7.2% | inhibition (PBK (human); compound 0.02 µM): 0.1% | inhibition (PBK (human); compound 0.2 µM): -6.1% | inhibition (TSSK3 (human); compound 0.02 µM): 0.6% | inhibition (TSSK3 (human); compound 0.2 µM): 12.5% | inhibition (FRK (human); compound 0.02 µM): 12% | inhibition (FRK (human); compound 0.2 µM): 27.4% | inhibition (EPHA2 (human); compound 0.02 µM): -5.4% | inhibition (EPHA2 (human); compound 0.2 µM): -3.5% | inhibition (LTK (human); compound 0.02 µM): 4.7% | inhibition (LTK (human); compound 0.2 µM): 5.6% | inhibition (NEK7 (human); compound 0.02 µM): -3.6% | inhibition (NEK7 (human); compound 0.2 µM): -4% | inhibition (CHUK (human); compound 0.02 µM): 5.3% | inhibition (CHUK (human); compound 0.2 µM): 5.3% | inhibition (RPS6KA2 KD1 KD2 (human); compound 0.02 µM): 3.9% | inhibition (RPS6KA2 KD1 KD2 (human); compound 0.2 µM): 2.2% | inhibition (FGR (human); compound 0.02 µM): 12.6% | inhibition (FGR (human); compound 0.2 µM): 27.6% | inhibition (PGK1 (human); compound 0.02 µM): -1.4% | inhibition (PGK1 (human); compound 0.2 µM): -6.5% | inhibition (HIPK4 (human); compound 0.02 µM): -0.9% | inhibition (HIPK4 (human); compound 0.2 µM): -6.5% | inhibition (AURKA (human); compound 0.02 µM): 3.3% | inhibition (AURKA (human); compound 0.2 µM): 4.9% | inhibition (AKT3 (human); compound 0.02 µM): -3.5% | inhibition (AKT3 (human); compound 0.2 µM): -4.2% | inhibition (INSRR (human); compound 0.02 µM): -0.3% | inhibition (INSRR (human); compound 0.2 µM): 13.3% | inhibition (AKT2 (human); compound 0.02 µM): 6.9% | inhibition (AKT2 (human); compound 0.2 µM): -0.1% | inhibition (KDR (human); compound 0.02 µM): 96.3% | inhibition (KDR (human); compound 0.2 µM): 101% | inhibition (GSK3A (human); compound 0.02 µM): 3.5% | inhibition (GSK3A (human); compound 0.2 µM): 2.1% | inhibition (AKT1 (human); compound 0.02 µM): -0.8% | inhibition (AKT1 (human); compound 0.2 µM): -3.1% | inhibition (EPHB2 (human); compound 0.02 µM): -4.3% | inhibition (EPHB2 (human); compound 0.2 µM): 8.7% | inhibition (PAK4 (human); compound 0.02 µM): 6.5% | inhibition (PAK4 (human); compound 0.2 µM): 0% | inhibition (NIM1 (human); compound 0.02 µM): 15.8% | inhibition (NIM1 (human); compound 0.2 µM): -9.8% | inhibition (ROCK1 (human); compound 0.02 µM): -1.3% | inhibition (ROCK1 (human); compound 0.2 µM): -1.3% | inhibition (CAMK1D (human); compound 0.02 µM): 0.3% | inhibition (CAMK1D (human); compound 0.2 µM): -0.6% | inhibition (MKNK1 (human); compound 0.02 µM): -2.9% | inhibition (MKNK1 (human); compound 0.2 µM): 2.6% | inhibition (TNIK (human); compound 0.02 µM): -0.5% | inhibition (TNIK (human); compound 0.2 µM): 24.9% | inhibition (STK4 (human); compound 0.02 µM): -4.5% | inhibition (STK4 (human); compound 0.2 µM): 9% | inhibition (EPHA7 (human); compound 0.02 µM): -2.4% | inhibition (EPHA7 (human); compound 0.2 µM): 23.5% | inhibition (CAMK2D (human); compound 0.02 µM): 3.9% | inhibition (CAMK2D (human); compound 0.2 µM): 3.9% | inhibition (PRKCH (human); compound 0.02 µM): 6% | inhibition (PRKCH (human); compound 0.2 µM): 4.7% | inhibition (GSG2 (human); compound 0.02 µM): 0.4% | inhibition (GSG2 (human); compound 0.2 µM): -0.4% | inhibition (JAK1 JH1 JH2 (human); compound 0.02 µM): -2.9% | inhibition (JAK1 JH1 JH2 (human); compound 0.2 µM): -3.6%
